Data from patent US9108930B2, “N1- and N2-carbamoyl-1,2,3-triazole serine hydrolase inhibitors and methods” (The Scripps Research Institute, priority 2011, dated 2015).

Experiments:
ABHD6 = target: T1, ABHD6 (Mus musculus, UniProt Q8R2Y0); assay: ABPP-MudPIT of peritoneal macrophages from treated mice; set-up: from tissue; host or cells: thioglycolate-elicited peritoneal macrophages of mice; settings: in vivo
T1 sequence (Q8R2Y0 1-336): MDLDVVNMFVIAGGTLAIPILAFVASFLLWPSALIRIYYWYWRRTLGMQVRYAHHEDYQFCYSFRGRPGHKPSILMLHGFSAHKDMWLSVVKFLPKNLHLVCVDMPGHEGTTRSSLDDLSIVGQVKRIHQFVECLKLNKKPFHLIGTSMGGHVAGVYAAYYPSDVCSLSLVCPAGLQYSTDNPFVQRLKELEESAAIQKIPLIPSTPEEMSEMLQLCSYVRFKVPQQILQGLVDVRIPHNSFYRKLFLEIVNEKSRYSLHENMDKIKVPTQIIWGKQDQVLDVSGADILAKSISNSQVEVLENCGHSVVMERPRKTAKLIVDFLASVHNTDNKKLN

[1] = system: serine hydrolases (SHs) in mouse T-cell proteomes; assay: Gel-based competitive ABPP, mouse T-cell proteomes in vitro, SH reactivity profile; type: biochemical; settings: 100 nM, 30 minutes at 37° C.
[2] = system: serine hydrolases (SHs) in mouse brain and heart; assay: In vivo selectivity across SHs in tissues of treated mice (gel-based ABPP, ABPP-SILAM)
Description: (§1) The potency and selectivity of 1,2,3-triazole ureas in vivo also was investigated. Mice were treated with the APEH inhibitor AA74-1 at various doses (0.2-1.6 mg/kg; PEG300 or 18:1:1 saline/ethanol/emulphor intraperitoneally) and sacrificed after 4 h. Brains and hearts were removed, homogenized, and analyzed by gel-based competitive ABPP. […] Finally, the possibility of extending ABPP-SILAC for the characterization of inhibitor selectivity in vivo was explored by taking advantage of recently described protocols for stable isotope labeling in mammals (SILAM). In this approach, brain tissues from vehicle- and AA74-1-treated mice were separately mixed with equivalent amounts of brain tissue from ‘heavy’ amino acid-fed mice, and the samples were then labeled with FP-biotin, enriched by avidin chromatography, analyzed by LC-MS, and SH activities quantified by measuring the ratio-of-ratios for observed peptide signals. […] The ratio-of-ratio signals for APEH indicated greater than 90% inhibition of this enzyme in AA74-1-treated animals (FIG. 5b, top), consistent with average spectral count values (14 and 1 spectral counts for APEH in vehicle-treated versus AA74-1-treated mice, respectively; FIG. 5b, bottom). […] ACHE, an enzyme that is targeted by other reported NHU inhibitors, was not inhibited by AA74-1 in either mouse brain (FIG. 5b) or transfected cell (FIG. 16) proteomes.

human APEH = target: T2, human APEH (Homo sapiens, UniProt P13798); assay: Competitive ABPP, soluble fractions of human cancer cells; type: biochemical
T2 construct: endogenous in cells; host or cells: SKOV3, C8161, MDA-MB-231 (soluble fractions)
T2 sequence (P13798 whole entry): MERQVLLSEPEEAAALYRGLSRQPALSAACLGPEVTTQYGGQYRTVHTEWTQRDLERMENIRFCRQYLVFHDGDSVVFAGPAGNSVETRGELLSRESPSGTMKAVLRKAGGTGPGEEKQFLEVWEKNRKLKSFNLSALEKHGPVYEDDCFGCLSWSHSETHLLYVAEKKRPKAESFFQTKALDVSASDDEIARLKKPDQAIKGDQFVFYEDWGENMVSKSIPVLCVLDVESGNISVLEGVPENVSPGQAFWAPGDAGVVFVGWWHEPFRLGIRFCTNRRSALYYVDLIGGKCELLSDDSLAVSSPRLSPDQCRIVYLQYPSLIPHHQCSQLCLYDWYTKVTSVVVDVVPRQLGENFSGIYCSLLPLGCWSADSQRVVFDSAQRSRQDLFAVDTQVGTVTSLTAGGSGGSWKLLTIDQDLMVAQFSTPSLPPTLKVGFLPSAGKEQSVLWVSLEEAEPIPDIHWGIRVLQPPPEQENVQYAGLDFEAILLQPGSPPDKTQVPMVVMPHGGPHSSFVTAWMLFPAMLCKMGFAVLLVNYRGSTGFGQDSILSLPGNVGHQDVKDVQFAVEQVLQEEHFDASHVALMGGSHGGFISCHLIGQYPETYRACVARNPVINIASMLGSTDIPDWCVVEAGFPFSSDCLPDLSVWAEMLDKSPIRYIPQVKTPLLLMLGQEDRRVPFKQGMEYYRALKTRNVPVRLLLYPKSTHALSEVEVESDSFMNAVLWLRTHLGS
Description: The soluble fractions of human ovarian (SKOV3), melanoma (C8161), and breast (MDA-MB-231) cancer cells, as well as rat neuroblastoma (B103) cells were treated with 30 nM AA74-1 or DMSO for 30 minutes at 37° C., after which the samples were analyzed by competitive ABPP. Inhibited APEH is highlighted with boxes. Note that other SHs detected in human and mouse proteomes were not inhibited by AA74-1.

APEH = target: T3, APEH (Mus musculus, UniProt Q8R146); assay: In vivo APEH inhibition, gel-based competitive ABPP of brain and heart; settings: i.p., 4 h; doses 0.2-1.6 mg/kg
T3 sequence (Q8R146 1-732): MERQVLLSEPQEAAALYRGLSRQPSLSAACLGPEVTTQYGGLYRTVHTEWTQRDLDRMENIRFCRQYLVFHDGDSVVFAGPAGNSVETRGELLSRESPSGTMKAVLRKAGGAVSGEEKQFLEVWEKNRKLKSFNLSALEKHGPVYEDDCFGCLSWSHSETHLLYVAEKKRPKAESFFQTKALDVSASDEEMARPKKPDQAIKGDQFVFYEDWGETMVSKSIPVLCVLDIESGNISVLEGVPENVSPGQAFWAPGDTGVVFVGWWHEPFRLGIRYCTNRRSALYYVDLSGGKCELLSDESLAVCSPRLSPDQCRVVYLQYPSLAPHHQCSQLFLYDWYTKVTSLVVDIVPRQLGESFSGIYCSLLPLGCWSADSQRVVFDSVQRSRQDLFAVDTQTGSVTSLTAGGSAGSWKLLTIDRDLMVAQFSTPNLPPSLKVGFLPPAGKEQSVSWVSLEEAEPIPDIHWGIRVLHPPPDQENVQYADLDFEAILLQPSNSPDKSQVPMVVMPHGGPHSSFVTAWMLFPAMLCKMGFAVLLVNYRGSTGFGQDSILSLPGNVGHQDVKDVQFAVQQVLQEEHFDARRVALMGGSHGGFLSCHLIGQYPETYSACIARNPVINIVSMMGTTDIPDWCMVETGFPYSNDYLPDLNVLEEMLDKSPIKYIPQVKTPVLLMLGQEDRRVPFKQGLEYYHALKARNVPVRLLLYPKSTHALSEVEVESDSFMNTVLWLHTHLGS
Description: as §1, with “proteomes. […]” for “proteomes.”

Structure (SMILES) | ABHD6 inhibition by spectral counting (ABHD6) | cross-reactivity with other SHs [1] | SHs inhibited among 44 SHs identified in brain (ABPP-SILAM) ([2]; 0.8 mg/kg, i.p.) | additional SH targets by gel-based ABPP ([2]; brain and heart, 0.2-1.6 mg/kg i.p., 4 h) | IC50 (human APEH) [µM] | dose (as low as) giving complete inhibition of APEH in brain and heart (APEH) [mg/kg]
COc1ccc(-c2ccc(-c3cn(C(=O)N4CCCCC4c4ccccc4)nn3)cc2)cc1 (stereo not drawn) [KT195] | complete inhibition of ABHD6 |  |  |  |  | 
CC(C)CC(O)(CC(C)C)c1cnn(C(=O)N2CCCC2)n1 [AA74-1] |  | not interacting with other SHs | only APEH was inhibited | No additional SH targets were observed | 0.011 | 0.4
